Experimental data as given in publication PMC3060404 (Chembiochem : a European journal of chemical biology, 2010).

Assays:
Format in all cases: biochemical
[1] = molecular target: PRMT1 (Homo sapiens, UniProt Q99873); assay: PRMT1 IC50 assay; settings: read-out: IC50 for PRMT1; 200 nM PRMT1, 15 µM 14C-methyl-SAM, 25 µM AcH4-21, 37 °C
[2] = system: PRMT3; assay: PRMT3 IC50 assay; settings: read-out: IC50 for PRMT3; 500 nM PRMT3, 15 µM 14C-methyl-SAM, 250 µM RGG, 37 °C
[3] = system: CARM1/PRMT4; assay: CARM1/PRMT4 IC50 assay; settings: read-out: IC50 for PRMT4; 150 nM CARM1/PRMT4, 15 µM 14C-methyl-SAM, 10 µM histone H3, 30 °C
[4] = molecular target: PRMT6 (Homo sapiens, UniProt Q96LA8); assay: PRMT6 IC50 assay; settings: read-out: IC50 for PRMT6; 500 nM PRMT6, 15 µM 14C-methyl-SAM, 30 µM histone H3, 37 °C
Chain of PRMT6 (Q96LA8 whole entry, species assumed): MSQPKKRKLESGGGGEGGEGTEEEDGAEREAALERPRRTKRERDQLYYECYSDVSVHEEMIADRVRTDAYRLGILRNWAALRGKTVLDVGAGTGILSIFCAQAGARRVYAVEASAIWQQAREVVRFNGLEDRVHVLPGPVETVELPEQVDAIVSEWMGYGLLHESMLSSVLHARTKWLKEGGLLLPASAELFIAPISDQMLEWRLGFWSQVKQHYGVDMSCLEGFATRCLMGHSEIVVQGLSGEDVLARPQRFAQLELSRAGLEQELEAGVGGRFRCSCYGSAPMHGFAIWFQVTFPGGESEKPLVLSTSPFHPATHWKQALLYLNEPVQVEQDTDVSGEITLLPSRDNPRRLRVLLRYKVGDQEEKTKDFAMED

Chain of PRMT1 (Q99873 1-353 isoform Q99873-3): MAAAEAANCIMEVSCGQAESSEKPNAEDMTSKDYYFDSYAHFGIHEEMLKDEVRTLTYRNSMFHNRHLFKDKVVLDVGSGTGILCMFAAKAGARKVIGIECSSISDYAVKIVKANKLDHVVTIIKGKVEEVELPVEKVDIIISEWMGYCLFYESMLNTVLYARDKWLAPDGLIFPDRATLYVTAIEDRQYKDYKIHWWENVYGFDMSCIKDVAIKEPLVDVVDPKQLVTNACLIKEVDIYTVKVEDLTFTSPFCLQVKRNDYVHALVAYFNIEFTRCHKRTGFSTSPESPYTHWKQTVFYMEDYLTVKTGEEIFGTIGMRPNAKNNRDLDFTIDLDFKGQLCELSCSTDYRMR

SMILES	IC50 [1] [µM]	IC50 [2] [µM]	IC50 [3] [µM]	IC50 [4] [µM]
NC(=O)[C@H](CCCN=C(N)CF)NC(=O)c1ccccc1 [F-amidine]	> 500	> 500	> 500	> 500
NC(=O)[C@H](CCCN=C(N)CCl)NC(=O)c1ccccc1 [Cl-amidine]	225 ± 10	> 500	> 500	> 500
